Measured values from patent US20240115729A1, “COMPOSITIONS AND METHODS FOR TARGETED ANTIFIBROTIC THERAPY IN CHRONIC PANCREATITIS” (University of Virginia Patent Foundation, priority 2021, published 2024).

Tests used:
[1] = test system: caerulein-induced CP mice; assay: Antifibrotic efficacy of targeted delivery of apigenin in caerulein-induced CP mice (H&E, picrosirius red, fibronectin); assay type: in vivo, mouse (C57BL/6J); conditions: CP mice pancreas after 3-week treatment; free drug 2 mg/kg oral 6 days per week, liposomes 6 mg/kg i.v. twice per week
Procedure: Apigenin treatments lasted for 3 weeks for the remaining 3 weeks of caerulein induction. […] Pancreata were perfused, harvested, and paraffin-embedded for immunohistochemistry staining. Livers were perfused, harvested, and partially paraffin-embedded for histology staining. […] Singh et al., 2012). […] The quantification of picrosirius red was determined by Image J, using threshold applied on the red composites of the RGB images. […] Fibronectin expression was quantified using the positive pixel count function on QuPath software (Bankhead et al., 2017). […] Serum alanine aminotransferase (ALT) and blood urea nitrogen (BUN) were determined on […] 8008 Chemistry Analyzer (IDEXX, Westbrook, Maine, United States of America). […] To test the antifibrotic efficacy of targeted liposomes, we evaluated the pharmacodynamics of apigenin in the free drug form, encapsulated in non-targeted liposomes and in ECM liposomes (FIG. 11A). ECM liposomes without drug loading were included in the study as vehicle control. C57BL/6J mice were injected with caerulein 14 days before treatment started to establish inflammation in the pancreas. […] FIGS. 11D and 11G). […] FIGS. 11C and 11F).

[2] = reported on PubChem; cited from earlier work

## O=c1cc(-c2ccc(O)cc2)oc2cc(O)cc(O)c12 [Apigenin, 4′,5,7-trihydroxyflavone]
[1]
  collagen deposition (Picrosirius red-positive area): 24.90 % area
[2]
  Charge (ph 7.4): 0
  Log P: 1.7
  Water Solubility: 183 mg/mL
  pKa1: 7.12
  pKa2: 8.10
